Data taken from patent publication US11802120B2, “Fused cyclic urea derivatives as CRHR2 antagonist” (RaQualia Pharma Inc., priority 2018, dated 2023).

Molecular target: T1, human CRHR2-alpha (Homo sapiens, UniProt Q13324)
T1 sequence (Q13324 1-411): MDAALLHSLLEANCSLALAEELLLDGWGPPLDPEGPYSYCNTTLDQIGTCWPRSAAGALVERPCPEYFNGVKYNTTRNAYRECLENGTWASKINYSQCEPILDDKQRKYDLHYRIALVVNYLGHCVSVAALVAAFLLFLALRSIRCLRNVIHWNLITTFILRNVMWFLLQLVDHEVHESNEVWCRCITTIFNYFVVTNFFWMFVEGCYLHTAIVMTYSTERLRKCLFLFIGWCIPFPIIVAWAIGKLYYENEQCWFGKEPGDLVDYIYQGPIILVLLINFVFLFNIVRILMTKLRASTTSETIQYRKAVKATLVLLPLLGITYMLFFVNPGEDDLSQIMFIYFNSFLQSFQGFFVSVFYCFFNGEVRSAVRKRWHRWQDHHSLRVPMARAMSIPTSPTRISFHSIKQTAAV
Test: cAMP functional assay for human CRHR2 (LANCE Ultra cAMP, TR-FRET)
Format: cell-based
Details: CHO-K1 cells expressing human CRHR2-alpha, agonist human urocortin2 at EC80, cAMP; read-out: IC50 against CRHR2
Procedure, shortened: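 IC50 values derive from percent inhibition of EC80 agonist-stimulated cAMP in CHO-K1 transfectants, with 0.5 mM IBMX present; the CRHR2 line was stimulated by human urocortin2 and the CRHR1 line by CRF.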

SMILES	IC50
CNc1ccc(-n2c(=O)n(C[C@H]3CC[C@H](NC(=O)c4cc(Cl)cnc4C(F)F)CC3)c3ccccc32)cn1 [Example 380, 5-chloro-2-(difluoromethyl)-N-((1r,4r)-4-((3-(6-(methyl-amino)pyridin-3-yl)-2-oxo-2,3-dihydro-1H-benzo[d]imidazol-1-yl)methyl)cyclo-hexyl)nicotinamide]	< 300 nM
CN(C)c1ccc(-n2c(=O)n(C[C@H]3CC[C@H](NC(=O)c4cc(Cl)cnc4C(F)F)CC3)c3ccccc32)cn1 [Example 381, 5-chloro-2-(difluoromethyl)-N-((1r,4r)-4-((3-(6-(dimethyl-amino)pyridin-3-yl)-2-oxo-2,3-dihydro-1H-benzo[d]imidazol-1-yl)methyl)cyclo-hexyl)nicotinamide]	< 300 nM
CN(CCO)c1ccc(-n2c(=O)n(C[C@H]3CC[C@H](NC(=O)c4cc(Cl)cnc4C(F)F)CC3)c3ccccc32)cn1 [Example 382, 5-chloro-2-(difluoromethyl)-N-((1r,4r)-4-((3-(6-((2-hydroxyethyl)(methyl)amino)pyridin-3-yl)-2-oxo-2,3-dihydro-1H-benzo[d]imidazol-1-yl)methyl)cyclohexyl)nicotinamide]	< 300 nM
O=C(N[C@H]1CC[C@H](Cn2c(=O)n(-c3ccc(N4CCOCC4)nc3)c3ccccc32)CC1)c1cc(Cl)cnc1C(F)F [Example 383, 5-chloro-2-(difluoromethyl)-N-((1r,4r)-4-((3-(6-morpholino-pyridin-3-yl)-2-oxo-2,3-dihydro-1H-benzo[d]imidazol-1-yl)methyl)cyclohexyl) nicotinamide]	< 300 nM
O=C(N[C@H]1CC[C@H](Cn2c(=O)n(-c3ccc(CO)cc3)c3ccccc32)CC1)c1cc(Cl)cnc1C(F)F [Example 384, 5-chloro-2-(difluoromethyl)-N-((1r,4r)-4-((3-(4-(hydroxy-methyl)phenyl)-2-oxo-2,3-dihydro-1H-benzo[d]imidazol-1-yl)methyl)cyclohexyl) nicotinamide]	< 300 nM
O=C(N[C@H]1CC[C@H](Cn2c(=O)n(-c3ccc4c(c3)nnn4CCO)c3ccccc32)CC1)c1cc(Cl)cnc1C(F)F [Example 385, 5-chloro-2-(difluoromethyl)-N-((1r,4r)-4-((3-(1-(2-hydroxyethyl)-1H-benzo[d][1,2,3]triazol-5-yl)-2-oxo-2,3-dihydro-1H-benzo[d]imidazol-1-yl)methyl)cyclohexyl)nicotinamide]	< 300 nM
Cn1cnc2cc(-n3c(=O)n(C[C@H]4CC[C@H](NC(=O)c5cc(Cl)cnc5C(F)F)CC4)c4ccccc43)ccc21 [Example 386, 5-chloro-2-(difluoromethyl)-N-((1r,4r)-4-((1′-methyl-2-oxo-1′H-[1,5′-bibenzo[d]imidazol]-3(2H)-yl)methyl)cyclohexyl)nicotinamide]	< 300 nM
O=C(N[C@H]1CC[C@H](Cn2c(=O)n(-c3ccc4ncsc4c3)c3ncccc32)CC1)c1cc(Cl)cnc1C(F)F [Example 387, N-((1r,4r)-4-((3-(benzo[d]thiazol-6-yl)-2-oxo-2,3-dihydro-1H-imidazo[4,5-b]pyridin-1-yl)methyl)cyclo-hexyl)-5-chloro-2-(difluoro-methyl)nicotinamide]	< 300 nM
Cc1ccc(-n2c(=O)n(C[C@H]3CC[C@H](NC(=O)c4cc(Cl)cnc4C(F)F)CC3)c3cccnc32)cc1 [Example 389, 5-chloro-2-(difluoromethyl)-N-((1r,4r)-4-((2-oxo-3-(p-tolyl)-2,3-dihydro-1H-imidazo[4,5-b]pyridin-1-yl)methyl)cyclohexyl)nicotinamide]	< 300 nM
CNC(=O)c1ccc(-n2c(=O)n(C[C@H]3CC[C@H](NC(=O)c4cc(Cl)cnc4C(F)F)CC3)c3ccc(OC)cc32)cn1 [Example 390, 5-(3-(((1r,4r)-4-(5-chloro-2-(difluoromethyl)nicotinamido)cyclohexyl)methyl)-6-me-thoxy-2-oxo-2,3-dihydro-1H-benzo[d]imidazol-1-yl)-N-methylpicolinamide]	< 300 nM
CNc1cnc(-n2c(=O)n(C[C@H]3CC[C@H](NC(=O)c4cc(Cl)cnc4C(F)F)CC3)c3ccccc32)cn1 [Example 391, 5-chloro-2-(difluoromethyl)-N-((1r,4r)-4-((3-(5-(methyl-amino)pyrazin-2-yl)-2-oxo-2,3-dihydro-1H-benzo[d]imidazol-1-yl)methyl)cyclohexyl) nicotinamide]	< 300 nM
O=C(N[C@H]1CC[C@H](Cn2c(=O)n(-c3ccc4ncccc4c3)c3ccccc32)CC1)c1cc(Cl)cnc1C(F)F [Example 392, 5-chloro-2-(difluoromethyl)-N-((1r,4r)-4-((2-oxo-3-(quinolin-6-yl)-2,3-dihydro-1H-benzo[d]imidazol-1-yl)methyl)cyclohexyl)nicotinamide]	< 300 nM
O=C(N[C@H]1CC[C@H](Cn2c(=O)n(-c3cnc4ncccc4c3)c3ccccc32)CC1)c1cc(Cl)cnc1C(F)F [Example 393, N-((1r,4r)-4-((3-(1,8-naph-thyridin-3-yl)-2-oxo-2,3-dihydro-1H-benzo[d]imidazol-1-yl)methyl)cyclohexyl)-5-chloro-2-(difluoromethyl) nicotinamide]	< 300 nM
O=C(N[C@H]1CC[C@H](Cn2c(=O)n(-c3ccc4ncncc4c3)c3ccccc32)CC1)c1cc(Cl)cnc1C(F)F [Example 394, 5-chloro-2-(difluoromethyl)-N-((1r,4r)-4-((2-oxo-3-(quinazolin-6-yl)-2,3-dihydro-1H-benzo[d]imidazol-1-yl)methyl)cyclohexyl)nicotinamide]	< 300 nM
Cc1ncc(Cl)cc1C(=O)N[C@H]1CC[C@H](Cn2c(=O)n(-c3ccc4cccnc4c3)c3ccccc32)CC1 [Example 395, 5-chloro-2-methyl-N-((1r,4r)-4-((2-oxo-3-(quinolin-7-yl)-2,3-dihydro-1H-benzo[d]imidazol-1-yl)methyl)cyclo-hexyl)nicotinamide]	< 300 nM
Cc1ncc(Cl)cc1C(=O)N[C@H]1CC[C@H](Cn2c(=O)n(-c3ccc4ccncc4c3)c3ccccc32)CC1 [Example 396, 5-chloro-N-((1r,4r)-4-((3-(isoquinolin-7-yl)-2-oxo-2,3-dihydro-1H-benzo[d]imidazol-1-yl)methyl)cyclohexyl)-2-methyl-nicotinamide]	< 300 nM
O=C(N[C@H]1CC[C@H](Cn2c(=O)n(-c3ccc4cnccc4c3)c3ccccc32)CC1)c1cc(Cl)cnc1C(F)F [Example 397, 5-chloro-2-(difluoromethyl)-N-((1r,4r)-4-((3-(isoquinolin-6-yl)-2-oxo-2,3-dihydro-1H-benzo[d]imidazol-1-yl)methyl)cyclohexyl)nicotinamide]	< 300 nM
O=C(N[C@H]1CC[C@H](Cn2c(=O)n(-c3ccc4cnccc4c3)c3ccccc32)CC1)c1cc(Cl)cnc1C(F)(F)F [Example 398, 5-chloro-N-((1r,4r)-4-((3-(isoquinolin-6-yl)-2-oxo-2,3-dihydro-1H-benzo[d]imidazol-1-yl)methyl)cyclohexyl)-2-(trifluoromethyl)nicotinamide]	< 300 nM
COc1cc(-n2c(=O)n(C[C@H]3CC[C@H](NC(=O)c4cc(Cl)cnc4C(F)F)CC3)c3cccnc32)ccc1F [Example 399, 5-chloro-2-(difluoromethyl)-N-((1r,4r)-4-((3-(4-fluoro-3-methoxyphenyl)-2-oxo-2,3-dihydro-1H-imidazo[4,5-b]pyridin-1-yl)methyl)cyclo-hexyl)nicotinamide]	< 300 nM
